From ChEMBL document CHEMBL1201862, “PubChem BioAssay data set” (2004)
The source made the active and inactive calls.

Assays:
A-375 [1] = assay: proliferation inhibition in MITF-low A375 cells – cell-based, cherry-pick samples, set 2, counter-screen for MITF modulator project, dose response (AID 540335); format: functional; settings: Homo sapiens
[2] = viability of HCT116 lacking mutant beta-catenin – cell-based, human colon tumor, dose response (AID 1045); format: functional;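 further: HCT116 colon tumor cells with beta catenin knocked out; cells exposed to compound for 60 hours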
[3] = viability of PTEN-deleted HCT116 cells – cell-based, HCT116 PTEN knockout, dose response (AID 1047); format: functional;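 further: HCT116 colon tumor cells with PTEN knocked out; cells exposed to compound for 60 hours before readout; potency for loss of cell viability measured by luminescence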
[4] = target: T1, Microphthalmia-associated transcription factor (Homo sapiens, UniProt O75030); assay: reducers of TRPM1 reporter luminescence, concentration series – cell-based, SK-MEL-5, cherry-picked, set 3, MITF inhibitor project, dose response (AID 493073); format: functional;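 further: SK-MEL-5 melanoma cells with luciferase driven by the MITF target TRPM1 promoter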
T1 sequence (O75030 whole entry): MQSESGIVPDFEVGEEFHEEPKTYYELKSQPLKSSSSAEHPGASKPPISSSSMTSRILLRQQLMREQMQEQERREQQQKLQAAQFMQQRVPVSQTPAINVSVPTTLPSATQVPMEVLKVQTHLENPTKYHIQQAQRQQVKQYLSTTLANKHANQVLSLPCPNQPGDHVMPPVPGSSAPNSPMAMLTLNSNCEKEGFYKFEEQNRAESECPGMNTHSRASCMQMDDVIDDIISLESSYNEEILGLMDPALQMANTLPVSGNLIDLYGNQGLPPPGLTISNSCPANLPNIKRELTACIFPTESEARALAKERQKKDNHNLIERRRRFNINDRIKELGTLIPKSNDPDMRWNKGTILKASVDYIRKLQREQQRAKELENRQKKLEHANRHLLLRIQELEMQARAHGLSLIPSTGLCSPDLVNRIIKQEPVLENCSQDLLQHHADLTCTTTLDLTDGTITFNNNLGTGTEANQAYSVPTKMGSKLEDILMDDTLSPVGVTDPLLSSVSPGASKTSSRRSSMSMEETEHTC

[5] = Luminescence Cell-Based Dose Retest to Confirm Inhibitors of Cancer Stem Cells. [Related pubchem assays (depositor defined):AID2717, AID2721]; format: functional; settings: Homo sapiens
Cysteine protease ATG4B = Cysteine protease ATG4B (Homo sapiens, UniProt Q9Y4P1); assay: autophagin-1 cysteine protease inhibition – biochemical, fluorescence, set 2, dose response (AID 588584); format: functional
BJ [6] = assay: BJ-TERT-LT-ST fibroblast viability loss – cell-based, RAS-independent, luminescence, dose response (AID 1935); format: functional; settings: Homo sapiens;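 further: BJ fibroblasts immortalized with TERT plus LT and ST oncogenes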
[7] = non-specific 3'UTR reporter inhibition in Clone20-Shn3RL – cell-based, Renilla luciferase, cherry-picked, counter-screen for Shn3 inhibitor project, dose response (AID 624133); format: functional
Phospholipase A2 = Phospholipase A2 (Homo sapiens, UniProt P04054); assay: phospholipase A2 activity inhibition – biochemical, set 2, counter-screen for ATG4B inhibitor project, dose response (AID 588586); format: functional
[8] = reduction of Shn3 3'UTR-driven luciferase in osteoblasts – cell-based, Clone20 osteoblasts, firefly luciferase, cherry-picked, dose response (AID 624132); format: functional;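 further: firefly luciferase luminescence from reporter carrying the Shn3 3'UTR in osteoblasts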
[9] = DRD fibroblast viability loss – cell-based, non-viral oncogenic, luminescence, dose response (AID 1934); format: functional; settings: Homo sapiens
BJ [10] = assay: BJ-TERT fibroblast viability loss – cell-based, RAS-independent, luminescence, dose response (AID 1933); format: functional; settings: Homo sapiens
BJ [11] = assay: cells; format: functional, cell-based; settings: Homo sapiens
[12] = target: T2, Sentrin-specific protease 7 (Homo sapiens, UniProt Q9BQF6); assay: inhibition of human SENP7 cleavage activity – biochemical, luminescence, set 2, SAR follow-up (AID 588600); format: functional
T2 sequence (Q9BQF6 whole entry): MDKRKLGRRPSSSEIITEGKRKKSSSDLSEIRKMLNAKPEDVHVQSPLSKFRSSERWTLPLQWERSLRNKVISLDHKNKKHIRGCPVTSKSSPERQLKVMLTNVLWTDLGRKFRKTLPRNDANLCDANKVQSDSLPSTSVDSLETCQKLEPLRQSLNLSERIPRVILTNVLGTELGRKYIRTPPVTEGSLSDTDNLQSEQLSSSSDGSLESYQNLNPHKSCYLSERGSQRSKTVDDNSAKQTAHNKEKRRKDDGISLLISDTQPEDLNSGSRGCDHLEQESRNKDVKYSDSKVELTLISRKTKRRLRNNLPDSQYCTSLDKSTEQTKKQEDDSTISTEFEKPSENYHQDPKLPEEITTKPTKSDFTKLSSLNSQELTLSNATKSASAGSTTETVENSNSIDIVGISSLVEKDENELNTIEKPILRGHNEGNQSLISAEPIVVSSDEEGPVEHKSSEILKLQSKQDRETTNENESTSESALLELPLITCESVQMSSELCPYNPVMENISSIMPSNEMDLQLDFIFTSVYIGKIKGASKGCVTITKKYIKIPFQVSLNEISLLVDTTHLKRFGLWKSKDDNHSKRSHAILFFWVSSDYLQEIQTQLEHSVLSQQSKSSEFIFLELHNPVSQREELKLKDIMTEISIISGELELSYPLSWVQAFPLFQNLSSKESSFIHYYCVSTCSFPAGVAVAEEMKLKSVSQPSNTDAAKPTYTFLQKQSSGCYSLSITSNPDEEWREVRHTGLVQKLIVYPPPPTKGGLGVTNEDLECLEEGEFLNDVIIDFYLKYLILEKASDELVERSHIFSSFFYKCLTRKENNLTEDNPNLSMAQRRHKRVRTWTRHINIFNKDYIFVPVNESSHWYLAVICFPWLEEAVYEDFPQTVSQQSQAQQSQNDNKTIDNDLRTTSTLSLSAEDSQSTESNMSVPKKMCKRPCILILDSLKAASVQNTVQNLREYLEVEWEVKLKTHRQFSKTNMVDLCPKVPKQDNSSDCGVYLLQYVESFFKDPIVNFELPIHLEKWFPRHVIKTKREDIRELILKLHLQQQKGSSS

[13] = target: T3, Sentrin-specific protease 8 (Homo sapiens, UniProt Q96LD8); assay: inhibition of sentrin protease 8 – biochemical, luminescence, set 2, SAR follow-up (AID 588601); format: functional
T3 sequence (Q96LD8 whole entry): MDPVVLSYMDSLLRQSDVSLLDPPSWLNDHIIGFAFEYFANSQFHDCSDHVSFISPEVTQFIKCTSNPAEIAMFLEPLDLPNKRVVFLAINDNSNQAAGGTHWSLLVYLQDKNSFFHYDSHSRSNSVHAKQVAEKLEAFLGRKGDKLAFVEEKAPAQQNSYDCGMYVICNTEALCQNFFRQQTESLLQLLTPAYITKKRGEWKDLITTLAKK

Caspase-3 = target: T4, Caspase-3 (Homo sapiens, UniProt P42574); assay: inhibition of recombinant caspase-3 activity – biochemical, luminescence, set 2, selectivity assay for SENP protease inhibitor project, SAR follow-up (AID 588599); format: functional
T4 sequence (P42574 whole entry): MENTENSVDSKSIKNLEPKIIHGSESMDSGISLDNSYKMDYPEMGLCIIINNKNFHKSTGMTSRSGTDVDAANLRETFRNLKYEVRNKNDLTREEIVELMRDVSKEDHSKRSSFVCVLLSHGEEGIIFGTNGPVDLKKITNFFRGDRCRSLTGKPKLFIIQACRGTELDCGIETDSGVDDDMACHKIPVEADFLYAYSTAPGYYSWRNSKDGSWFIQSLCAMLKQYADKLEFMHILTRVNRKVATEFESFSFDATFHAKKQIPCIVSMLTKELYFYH

[14] = target: T5, Sentrin-specific protease 6 (Homo sapiens, UniProt Q9GZR1); assay: inhibition of human SENP6 catalytic domain – biochemical, luminescence, set 2, SAR follow-up (AID 588598); format: functional
T5 sequence (Q9GZR1 whole entry): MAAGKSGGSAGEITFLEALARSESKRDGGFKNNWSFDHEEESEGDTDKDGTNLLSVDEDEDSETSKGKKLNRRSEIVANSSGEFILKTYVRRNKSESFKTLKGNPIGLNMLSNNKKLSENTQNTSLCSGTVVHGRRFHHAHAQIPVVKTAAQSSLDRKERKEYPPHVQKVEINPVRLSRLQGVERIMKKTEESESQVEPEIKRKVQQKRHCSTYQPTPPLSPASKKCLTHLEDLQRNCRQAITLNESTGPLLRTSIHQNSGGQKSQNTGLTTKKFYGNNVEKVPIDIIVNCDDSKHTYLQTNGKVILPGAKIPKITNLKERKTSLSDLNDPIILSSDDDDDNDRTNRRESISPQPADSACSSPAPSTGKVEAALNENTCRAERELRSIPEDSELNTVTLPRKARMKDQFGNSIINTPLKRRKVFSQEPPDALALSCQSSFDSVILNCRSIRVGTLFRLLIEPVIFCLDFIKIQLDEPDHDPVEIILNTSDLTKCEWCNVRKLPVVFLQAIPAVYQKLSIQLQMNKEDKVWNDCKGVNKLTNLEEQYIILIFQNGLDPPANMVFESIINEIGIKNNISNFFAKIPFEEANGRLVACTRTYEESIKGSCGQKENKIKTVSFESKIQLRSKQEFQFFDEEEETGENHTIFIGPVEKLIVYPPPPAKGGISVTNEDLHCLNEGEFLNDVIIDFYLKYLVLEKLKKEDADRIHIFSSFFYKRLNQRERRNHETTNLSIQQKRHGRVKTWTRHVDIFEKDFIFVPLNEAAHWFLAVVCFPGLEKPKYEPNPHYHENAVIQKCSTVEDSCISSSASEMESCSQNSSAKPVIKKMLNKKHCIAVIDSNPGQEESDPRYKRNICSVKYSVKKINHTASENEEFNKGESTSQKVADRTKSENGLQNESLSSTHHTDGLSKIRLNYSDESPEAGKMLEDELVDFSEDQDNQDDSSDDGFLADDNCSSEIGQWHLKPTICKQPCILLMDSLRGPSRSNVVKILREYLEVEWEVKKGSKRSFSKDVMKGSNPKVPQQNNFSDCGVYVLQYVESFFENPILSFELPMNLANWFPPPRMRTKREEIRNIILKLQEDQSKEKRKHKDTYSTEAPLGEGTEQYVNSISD

A-375 [15] = assay: MITF: Counter assay: A375 proliferation Measured in Cell-Based System Using Plate Reader - 2084-03_Inhibitor_Dose_DryPowder_Activity. [Related pubchem assays (depositor defined):AID488944]; format: functional; settings: Homo sapiens
[16] = target: 5-hydroxytryptamine receptor 5A (Homo sapiens, UniProt P47898); assay: Counterscreen for agonists of OPRM1-OPRD1 heterodimerization: luminescence-based cell-based high throughput dose response assay to identify agonists of 5-hydroxytryptamine (serotonin) 5A receptor (HTR5A). [Related pubchem assays (depositor defined):AID504326, AID504355, AID504692, AID504904, AID504905]; format: functional
Melanocortin receptor 4 = Melanocortin receptor 4 (Homo sapiens, UniProt P32245); assay: inhibitors of MC4R cAMP signaling – cell-based, TR-FRET, biased antagonists, dose response (AID 602298); format: functional;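 further: antagonist potency against agonist-stimulated cAMP production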
[17] = cAMP pathway inhibition in counterscreen cell line – TR-FRET cAMP detection, counter-screen for MC4R biased antagonist project, dose response (AID 602305); format: functional, cell-based;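 further: U2OS cells stimulated with forskolin near its EC80 as the cAMP inducer; potency is for inhibition of forskolin-stimulated cAMP signaling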
[18] = system: Streptococcus sp. 'group A'; assay: Streptococcus pyogenes SK(-)GAS viability under kanamycin – luminescence, BacTiterGlo, confirmation, counter-screen for streptokinase expression inhibitor project, dose response (AID 1900); format: functional, organism-based
Streptokinase A = target: T6, Streptokinase A (Streptococcus pyogenes serotype M1, UniProt P10520); assay: viability-normalized secreted streptokinase activity reduction – plasminogen activation absorbance, OD405, dose response (AID 1914); format: functional, Streptococcus pyogenes M1 GAS;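 further: secreted streptokinase activity via plasminogen activation per viability signal from cell pellet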
T6 sequence (P10520 whole entry): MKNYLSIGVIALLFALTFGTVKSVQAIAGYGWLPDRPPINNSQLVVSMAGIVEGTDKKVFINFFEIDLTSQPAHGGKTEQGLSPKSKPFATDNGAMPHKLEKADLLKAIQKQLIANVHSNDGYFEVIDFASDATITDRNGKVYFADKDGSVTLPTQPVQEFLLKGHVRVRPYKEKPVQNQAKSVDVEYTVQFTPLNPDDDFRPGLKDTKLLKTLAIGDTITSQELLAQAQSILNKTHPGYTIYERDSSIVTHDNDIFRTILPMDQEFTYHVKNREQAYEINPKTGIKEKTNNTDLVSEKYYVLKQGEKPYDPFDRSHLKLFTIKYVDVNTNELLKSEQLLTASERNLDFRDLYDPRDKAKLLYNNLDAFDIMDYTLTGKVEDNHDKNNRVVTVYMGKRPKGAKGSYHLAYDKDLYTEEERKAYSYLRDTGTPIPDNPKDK

Mu-type opioid receptor = Mu-type opioid receptor (Homo sapiens, UniProt P35372); assay: Counterscreen for agonists of heterodimerization of the mu 1 (OPRM1) and delta 1 (OPRD1) opioid receptors: Luminescence-based cell-based high throughput dose response assay to identify agonists of OPRM1 homodimerization.; format: functional;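 further: U2OS cells expressing OPRM1 and beta-arrestin as split beta-galactosidase partners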
[19] = target: Delta-type opioid receptor (Homo sapiens, UniProt P41143); assay: Counterscreen for agonists of heterodimerization of the mu 1 (OPRM1) and delta 1 (OPRD1) opioid receptors: Luminescence-based cell-based high throughput dose response assay to identify agonists of OPRD1 homodimerization. [Related pubchem assays (depositor defined):AID504326, AID504355, AID504692, AID504904, AID504905]; format: functional
[20] = target: Neurotensin receptor type 1 (Homo sapiens, UniProt P30989); format: functional;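 further: Image-based confirmatory dose-response assay measuring agonist activity at NTR1; NTR1-expressing U2OS osteosarcoma cells imaged for beta-arrestin GFP spot formation; agonist potency where compounds increase beta-arrestin recruitment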
Streptococcus = assay: GAS UMAA2166 growth inhibition – luminescence, BacTiterGlo, counter-screen for streptokinase expression inhibitor project, dose response (AID 1915); format: functional, organism-based;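 further: potency for reduction of bacterial viability or growth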

Sequence of Mu-type opioid receptor (P35372 whole entry): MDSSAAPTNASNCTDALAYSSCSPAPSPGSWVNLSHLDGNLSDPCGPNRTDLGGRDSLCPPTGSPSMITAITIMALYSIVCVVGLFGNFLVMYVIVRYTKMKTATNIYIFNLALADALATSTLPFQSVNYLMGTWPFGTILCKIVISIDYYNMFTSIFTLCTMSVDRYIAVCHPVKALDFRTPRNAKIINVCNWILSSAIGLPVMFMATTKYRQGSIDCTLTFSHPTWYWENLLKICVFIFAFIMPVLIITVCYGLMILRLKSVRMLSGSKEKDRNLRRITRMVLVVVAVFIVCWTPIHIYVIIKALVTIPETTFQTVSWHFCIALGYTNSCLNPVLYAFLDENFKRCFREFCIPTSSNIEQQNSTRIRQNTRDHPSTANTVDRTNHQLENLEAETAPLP
Sequence of Phospholipase A2 (P04054 whole entry): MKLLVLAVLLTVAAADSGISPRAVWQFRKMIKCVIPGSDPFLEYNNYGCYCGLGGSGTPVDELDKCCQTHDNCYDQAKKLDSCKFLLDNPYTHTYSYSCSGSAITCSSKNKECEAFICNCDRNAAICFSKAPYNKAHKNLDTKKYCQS
Sequence of 5-hydroxytryptamine receptor 5A (P47898 whole entry): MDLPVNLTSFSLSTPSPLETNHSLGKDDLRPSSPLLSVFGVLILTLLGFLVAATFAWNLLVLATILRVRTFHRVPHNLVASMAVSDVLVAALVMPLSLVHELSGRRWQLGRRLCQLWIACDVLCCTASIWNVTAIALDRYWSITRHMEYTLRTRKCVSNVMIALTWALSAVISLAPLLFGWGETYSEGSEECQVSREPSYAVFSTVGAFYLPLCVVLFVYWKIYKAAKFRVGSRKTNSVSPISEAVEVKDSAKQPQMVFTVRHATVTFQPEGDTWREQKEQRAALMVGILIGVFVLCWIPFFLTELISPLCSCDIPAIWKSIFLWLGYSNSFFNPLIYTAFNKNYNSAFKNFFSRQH
Sequence of Neurotensin receptor type 1 (P30989 whole entry): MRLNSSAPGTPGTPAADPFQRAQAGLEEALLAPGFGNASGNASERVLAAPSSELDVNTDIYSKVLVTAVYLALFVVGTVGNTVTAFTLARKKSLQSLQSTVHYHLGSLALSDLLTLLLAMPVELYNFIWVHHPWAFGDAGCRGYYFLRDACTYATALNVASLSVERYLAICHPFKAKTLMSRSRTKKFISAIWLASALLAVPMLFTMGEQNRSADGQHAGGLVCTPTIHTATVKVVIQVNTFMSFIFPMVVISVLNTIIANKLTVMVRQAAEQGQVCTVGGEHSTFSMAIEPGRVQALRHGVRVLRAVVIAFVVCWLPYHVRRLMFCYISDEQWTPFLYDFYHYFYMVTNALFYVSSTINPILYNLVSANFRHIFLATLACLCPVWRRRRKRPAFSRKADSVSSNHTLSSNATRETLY
Sequence of Melanocortin receptor 4 (P32245 whole entry): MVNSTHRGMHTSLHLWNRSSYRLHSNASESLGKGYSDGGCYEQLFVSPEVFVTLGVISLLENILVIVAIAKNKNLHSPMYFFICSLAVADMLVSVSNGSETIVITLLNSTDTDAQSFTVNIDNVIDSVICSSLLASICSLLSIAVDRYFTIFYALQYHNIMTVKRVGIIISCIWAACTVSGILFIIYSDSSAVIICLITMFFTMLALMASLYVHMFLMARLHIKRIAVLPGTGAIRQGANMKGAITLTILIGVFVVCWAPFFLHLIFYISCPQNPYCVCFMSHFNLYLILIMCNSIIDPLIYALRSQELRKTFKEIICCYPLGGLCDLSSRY
Sequence of Cysteine protease ATG4B (Q9Y4P1 whole entry): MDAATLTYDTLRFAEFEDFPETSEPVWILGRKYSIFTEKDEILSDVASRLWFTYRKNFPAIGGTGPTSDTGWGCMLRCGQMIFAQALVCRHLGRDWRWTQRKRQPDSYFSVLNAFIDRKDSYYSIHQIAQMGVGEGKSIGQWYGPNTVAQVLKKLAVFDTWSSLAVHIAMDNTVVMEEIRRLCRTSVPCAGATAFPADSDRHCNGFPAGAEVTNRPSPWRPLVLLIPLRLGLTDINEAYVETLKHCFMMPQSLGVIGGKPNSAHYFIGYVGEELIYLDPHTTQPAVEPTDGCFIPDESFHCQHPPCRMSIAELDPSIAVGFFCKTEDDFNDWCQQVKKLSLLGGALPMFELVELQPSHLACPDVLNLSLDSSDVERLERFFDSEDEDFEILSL
Sequence of Delta-type opioid receptor (P41143 whole entry): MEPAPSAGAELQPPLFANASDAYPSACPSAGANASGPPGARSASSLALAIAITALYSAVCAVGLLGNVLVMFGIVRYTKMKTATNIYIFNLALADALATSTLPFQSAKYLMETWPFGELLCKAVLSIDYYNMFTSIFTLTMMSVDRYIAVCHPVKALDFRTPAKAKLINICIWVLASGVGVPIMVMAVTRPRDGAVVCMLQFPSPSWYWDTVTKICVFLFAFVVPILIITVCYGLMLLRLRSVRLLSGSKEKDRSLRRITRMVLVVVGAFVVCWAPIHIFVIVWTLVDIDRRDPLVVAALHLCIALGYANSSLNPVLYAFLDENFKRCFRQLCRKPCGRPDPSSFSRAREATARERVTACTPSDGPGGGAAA

Cc1ccc(NC2=C(Cl)C(=O)c3ccccc3C2=O)cc1
AC50 (A-375 [1]): 12.6 µM (active)
EC50 [2]: 4.88 µM (active)
EC50 [3]: 10.7 µM (active)
AC50 [4]: 5.25 µM (active)
AC50 [5]: 1.17 µM (active)

O=C(OCCN1C(=O)c2cccc3c(N4CCOCC4)ccc(c23)C1=O)c1ccccc1Cl
IC50 (Cysteine protease ATG4B): > 80 µM (inactive)
EC50 (BJ [6]): > 150 µM (inconclusive)
AC50 [7]: 6.25 µM (active)
IC50 (Phospholipase A2): > 80 µM (inactive)
AC50 [8]: 3.06 µM (active)
EC50 [9]: 18.8 µM (active)
EC50 (BJ [10]): 17.2 µM (active)
EC50 (BJ [11]): 21.5 µM (active)

Cc1[nH]c2ccccc2c1C(=O)C(=O)NCCCN1CCOCC1
IC50 [12]: > 99 µM (inactive)
IC50 [13]: > 99 µM (inactive)
IC50 (Caspase-3): > 99 µM (inactive)
IC50 [14]: > 99 µM (inactive)

CN(C)S(=O)(=O)c1ccc(-c2csc(N/N=C/c3ccc(O)cc3)n2)cc1
AC50 (A-375 [15]): 30.8 µM (active)
EC50 [16]: > 92.5 µM (inactive)
IC50 (Melanocortin receptor 4): > 64.6 µM (inactive)
IC50 [17]: > 64.6 µM (inactive)
EC50 [18]: 8.68 µM (active)
AC50 [4]: 4.6 µM (active)
EC50 (Streptokinase A): > 150 µM (not active)
EC50 (Mu-type opioid receptor): > 92.5 µM (inactive)
EC50 [19]: > 92.5 µM (inactive)
EC50 [20]: 6.62 µM (active)
EC50 (Streptococcus): 13.3 µM (active)
